The results in this text go back to patent US20250251402A1, “METHODS OF DETECTING MOLECULAR AGGREGATES USING IMAGE CORRELATION SPECTROSCOPY (ICS)” (The General Hospital Corporation, priority 2022, published 2025).

Assay type in all cases: cell-based
One experiment relates to WPMY-1 cells. As to the kind of experiment: Autocorrelation (ICS DA) of 53BP1 in phenotypic screen images, WPMY-1. The method, then:
(§1) Images from the original study (8) were accessed through the Image Data Resource (32) API on the Open Microscopy environment. Nuclei were segmented using StarDist (33) on the BFP channel image. Segmented nuclei were then analyzed by image correlation spectroscopy autocorrelation (34) in the TP53BP1 channel and the average degree of aggregation (DA) was calculated.
(§2) We accessed the original phenotypic screen (8) images through the IDR API on the Open Microscopy server. The screen contained three different cell lines that had endogenous TP53BP1 labeled GFP as a marker protein. We first identified all the images from these three cell lines (>60,000 images in total), then segmented the nuclei of each cell using the BFP channel image. Segmented nuclear regions were then transferred to the TP53BP1 image and image autocorrelation was performed on each nucleus. The degree of aggregation (DA, a measurement of fluorophore clustering) for each nucleus was then averaged to produce an overall image 53BP1 DA that corresponded to the compound and compound concentration. The dataset contained repeats of four different doses for each compound. The activity of each compound in each cell line was then determined by fitting a linear regression to the DA as a function of compound concentration. The slope and significance versus the null hypothesis (slope equal to zero) of DA vs. concentration was then determined.
(§3) 53BP1 DA is a measure of protein labeled fluorophore clustering within the nucleus. […] Increases in 53BP1 recruitment can occur either through induction of DNA damage or altered repair pathways, such as shifting the response from homologous recombination to non-homologous end joining.

The subject of a further experiment is A549 cells. As to the kind of experiment: Autocorrelation (ICS DA) of 53BP1 in phenotypic screen images, A549. The method, then:
as §1, §2, §3

A further experiment has as its system HepG2 cells. As to the kind of experiment: Autocorrelation (ICS DA) of 53BP1 in phenotypic screen images, HepG2. The method, then: as §1, §2, §3
Another experiment relates to 53BP1. The experiment can be described thus: Autocorrelation (ICS DA) of 53BP1 in phenotypic screen images, cell line not specified. The note with it: at least one cell line of A549, WPMY-1, HepG2. The method, then:
as §1, with “calculated. […] Active compounds were defined as having significant (p<0.05) non-zero linear regressions, either negative or positive. The activity score was determine by summing the direction of each active compound and dividing by the total number of compounds in the MoA.” for “calculated.”
as §2, with “determined. Active compounds were defined as those having a significant (p<0.05) slope of DA vs. concentration.” for “determined.”
53BP1 DA is a measure of protein labeled fluorophore clustering within the nucleus. […] Yet, given the highly characterized role of 53BP1 in the DNA damage response (9), recruitment to DNA damage response foci is likely the most prominent driver of measured activity.

A further experiment relates to HT1080 cells. The experiment can be described thus: γH2AX immunofluorescence ICS DA and nuclear intensity in HT1080 cells. The note with it: HT1080, 10 nM GMX1778 for 24 hours vs control. The method, then: Cells were plated in 8-well […] slides (Thermo or Ibidi) to achieve 50% confluence overnight. Cells were then treated and fixed with 4% paraformaldehyde in PBS at room temperature for 10 minutes. Antibody staining was performed according to the manufacturers protocol. Following fluorescent secondary antibody labeling, prolong gold with DAPI (Cell Signaling Technologies) was added and samples were stored for up to 1 week prior to imaging.
ICS analysis was performed in MATLAB as previously described (41). Briefly, nuclei were segmented from the DAPI channel with the MATLAB function, imbinarize, converting the greyscale image to a binary dependent on an automatically defined threshold. The MATLAB function, regionprops, was used to identify single nuclei as objects. Each nucleus was used as a mask to perform ICS analysis on the antibody-stained channel, within size limitations for a nucleus (objects >400 and <3000 pixels). To ensure the analysis of antibody stained nuclei, nuclei under an average intensity of 200 au after background subtraction were excluded. The spatial autocorrelation functions were calculated using Fourier methods, then fit to a 2D Gaussian using a nonlinear least-squares algorithm (41). Using the outputs of the fitting, the mean number of independent emitting fluorescent entities per focal spot area and subsequently the DA were determined (59). DA measurements across experiments were normalized by the control in each dataset. […] Any DA values exceeding 3 standard deviations from the mean were defined as incorrectly segmented and removed. Data were plotted in Prism and analysis performed in Prism or Excel.

A further experiment has as its system HCC1937 cells. As to the kind of experiment: 53BP1-mApple condensate anisotropy (homo-FRET) and intensity in HCC1937 cells. The method, then:
All fluorescence imaging was performed on an Olympus FV1000 multiphoton/confocal microscope. Anisotropy measurements were performed through custom modifications to the imaging system as previously described (30). Briefly, linear polarization of two photon excitation light at 910 nm (MaiTai femtosecond laser, Spectra Physics) was controlled by a glan-thompson prism and half wave plate. […] was collected in orthogonal orientations through two detectors, parallel and perpendicular to excitation polarization, through a polarizing beam splitter that replaced a dichroic mirror in the emission filter cube. The alignment and detector gain and noise were validated each imaging session through measurements of a standard slide. Images were taken with an Olympus 25× XLPlan N objective, NA 1.05, and 3× digital zoom. Confocal imaging was performed with an Olympus XLUMPlanFL N 20× objective, NA 1.00 with chromatic correction, and 3× digital zoom.
Cells were grown on 12 mm round, uncoated, sterilized glass coverslips in 24-well plates for 24 hours. Cells were treated with PARPi and 100 μM TMZ for 1 hour or 10 nM GMX1778 overnight followed by 100 μM TMZ for 1 hour. TMZ was added to stimulate new DNA damage induced condensates in the presence of PARPi or NAD″ depletion. Cells were then transferred to the microscope for anisotropy imaging. Images were analyzed in MATLAB. Nuclei were segmented through intensity thresholding and condensates were segmented through further intensity thresholding with a higher threshold. Values of segmented nuclei and condensates were determined through the regionprops function. Segmentation was corrected through area restrictions to ensure that regions of interest were isolated condensates. The thresholding parameters were consistent throughout experiments. The average intensity and anisotropy of each segmented nuclei or condensate was then calculated. Data were plotted in Prism and analysis performed in Prism or Excel.

The test system of a further experiment is OVCA429 cells. The experiment can be described thus: γH2AX immunofluorescence in OVCA429 cells (intensity, Imaris Spots, ICS TNoP and DA). The text has this: (§4) For the ICS analysis, nuclei were segmented from the DAPI channel using a watershed approach in MATLAB. Briefly, we applied a difference of gaussians for size-based feature extraction of nuclei in the image (upper gaussian σ=100, lower gaussian σ=2-5 dependent on cell size). This feature enhanced image was then binarized to create a primary mask (using the function imbinarize) and connected components under 100 pixels were removed (using the function bwareaopen). We then created a distance transform of the resulting binary image (using the function bwdist). Seed points were determined by finding the regional maximum of a gaussian filtered image, with a gaussian σ of appropriate size for seed point detection (σ×7 or 8 dependent on cell size). The seed points were applied to the distance transform, and we applied the watershed function to the resulting image to obtain masks for each nucleus (extracted using the function regionprops).
(§5) Using the nucleus masks, we performed ICS analysis on the antibody-stained channel, within size limitations for a nucleus (objects >400 and <2400 pixels). Intensity, DA and TNOP were calculated for each cell. In this analysis, since the ROI is defined by the nucleus mask (segmented from nuclear signal using DAPI staining), TNoP represents the total number of particles per nucleus, with the image area being the number of pixels in each nuclear mask.
(§6) Measurements across experiments were normalized by the control in each dataset. […] Data were plotted in Prism and statistical analysis was performed in Excel.
(§7) Imaris spots analysis were performed with Imaris 9.8 with background subtraction, using a spot size of 1 μm that was measured from the smallest distinguishable foci from the control image. For images with multiple nuclei, ImarisCell was used with the detection type “cell and vesicles”, where the nucleus in the DAPI channel was modelled as the “cell” and antibody-labeled foci were modelled as the “vesicles”. This enabled us to count the number of foci per nucleus for multiple cells. In each dataset, the automatic “quality” threshold was determined from the control image and the same threshold was used for every image in the dataset to be able to compare the outputs across datasets. Similar to the ICS analysis, only cells with an area between 400-2400 voxels were included for analysis.
(§8) All chemicals were purchased from Sigma unless otherwise noted. All drugs were purchased from Selleck Chemicals. Cells were cultured in media supplemented with 10% fetal bovine serum and 1% penicillin/streptomycin. OVCA429 were originally obtained from Dr. Michael Birrer and cultured in DMEM. SKOV3 was obtained from ATCC and cultured in RPMI. For MMS treatment, cells were incubated for 6 hours before fixation with 4% formaldehyde, whereas for treatment with PARP inhibitors, cells were incubated for 24 hours before fixation.
(§9) Cells were plated in 8-well slides (Fisher) to achieve 50% confluence overnight. Cells were then treated and fixed with 4% formaldehyde in PBS at room temperature for 10 minutes. Antibody staining was performed according to the manufacturers protocol (Cell Signaling Technologies or Abcam). Primary antibodies used were γH2AX (CST, #2577), RPA1 (CST, #2267) and RAD51 (Abcam, 63801), with Anti-rabbit IgG Fab2 Alexa Fluor 647 (CST, #4414) as the secondary fluorescent antibody. After antibody labeling, prolong gold with DAPI (CST) was added and samples were stored for up to 1 week prior to imaging. Confocal imaging was performed on an Olympus FV1000 multiphoton/confocal microscope using an Olympus XLUMPlanFL N 20× objective, NA 1.00 with chromatic correction, and 3× digital zoom. DAPI was excited with a 405 nm laser, while Alexa Fluor 647 was excited with a 635 nm laser. A multiband (DM 405/488/561/633 nm) dichroic mirror was used to direct the excitation laser and collect emission. […]

The subject of a further experiment is SKOV3 cells. The experiment can be described thus: γH2AX immunofluorescence in SKOV3 cells (intensity, Imaris Spots, ICS TNoP and DA).
Excerpt: as §4, §5, §6, §7, §8, §9

Where [1] appears, read: HCC1937, 10 nM GMX1778 overnight then 100 μM TMZ 1 hour.

Take `NC(=O)c1cccc(N)c1` [3-aminobenzamide]: the “53BP1 DA vs. concentration regression (53BP1 recruitment)” value (“53BP1 DA vs. concentration regression” below) in the experiment with WPMY-1 cells, in the experiment on A549 cells and with HepG2 cells was “reduced 53BP1 recruitment” throughout.
Consider `O=c1[nH]cnc2ccccc12` [4-HQN], for which the “53BP1 DA vs. concentration regression” value in the experiment with 53BP1 was “increased 53BP1 recruitment”.
With `Cc1nc(NC(=O)N2CCC[C@H]2C(N)=O)sc1-c1csc(C(C)(C)C)n1` [A66], in the experiment on WPMY-1 cells, the “53BP1 DA vs. concentration regression” value was “strong inducers of 53BP1 recruitment”.
As to `N#CN=C(NCCCCCCOc1ccc(Cl)cc1)Nc1ccncc1` [GMX1778], in the experiment with HT1080 cells, the “γH2AX ICS DA” value is on record as “significantly increased” and the “γH2AX levels (nuclear intensity)” value is “no significant difference”. In the experiment with HCC1937 cells (setting [1]), the “53BP1-mApple condensate anisotropy vs control” value was “significantly lowered condensate anisotropy” and the “53BP1-mApple condensate intensity vs control” value was “without impacting condensate intensity”.
With `NC(=O)c1cccc(-c2cc(Nc3ccc(OC(F)(F)F)cc3)ncn2)c1` [GNF 2], the “53BP1 DA vs. concentration regression” value with A549 cells and in the experiment on HepG2 cells was “reduced 53BP1 recruitment” throughout.
As for `CCCOc1ccc(CCc2nc3cc(-c4c(C)noc4C)ccc3n2CCN2CCOCC2)cc1` [PF CBP1], in the experiment on WPMY-1 cells, the “53BP1 DA vs. concentration regression” value is on record as “strong activity”.
As to `COc1ccccc1S(=O)(=O)Nc1ccc2c(c1)CN(C)C(=O)N2` [PFI-1], the “53BP1 DA vs. concentration regression” value with A549 cells and in the experiment with HepG2 cells was “strong positive activity” each time.
As for `Cc1cc(C)c(C)c(S(=O)(=O)Nc2ccc(N3CC[C@H](C(=O)O)C3)c3ccccc23)c1C` [RA839], in the experiment with WPMY-1 cells, the “53BP1 DA vs. concentration regression” value is “two of the strongest 53BP1 recruitment-reducing compounds”.
On the same count and under the same terms, to `O=C(CCCCCCC(=O)Nc1ccccc1)NO` [SAHA] belongs “strong inducers of 53BP1 recruitment”.
Take `O=C(c1cc(Cc2n[nH]c(=O)c3ccccc23)ccc1F)N1CCN(C(=O)C2CC2)CC1` [olaparib]: in the experiment with OVCA429 cells (OVCA429), the “ICS DA of γH2AX, dose dependence” value is listed as “full dose dependent increases in γH2AX clustering” and the “Imaris Spots analysis of γH2AX, dose dependence” value is “able to capture olaparib dose dependence”. The “γH2AX intensity, dose dependence” value in the experiment with OVCA429 cells (OVCA429, PARP inhibitors) is “did not show a dose dependence”. The “53BP1-mApple condensate anisotropy vs control” value with HCC1937 cells (HCC1937, 1 μM PARPi and 100 μM TMZ for 1 hour) was “significantly lower condensate anisotropy compared to control”. The “ICS TNoP of γH2AX, dose dependence” value in the experiment with SKOV3 cells (SKOV3) is “slight TNOP dose dependence”. Besides, the “Number of γH2AX spots determined by Imaris” value with SKOV3 cells (SKOV3, 100 μM olaparib vs 10 μM dose) is given as “not significant compared to the 10 μM dose”.
For the compound `Cc1c(-c2cnccn2)ssc1=S` [oltipraz], the “53BP1 DA vs. concentration regression” value in the experiment with WPMY-1 cells is “two of the strongest 53BP1 recruitment-reducing compounds”.
Same read-out and setting: to `S=P(N1CC1)(N1CC1)N1CC1` [thiotepa] belongs “strong inducers of 53BP1 recruitment”.
